Literature values as cited in PMC5641599 (Molecular Metabolism, 2017).
Where two headings read alike, the source gives them in different places.

Legend:
Conditions in all cases: cited from earlier work
[1] = tested on: MC4R variants
[2] = tested on: MC4R variants; remark: listed apart in the source
[3] = tested on: MC4R variants; remark: listed apart in the source
[4] = tested on: MC4R variants; remark: listed apart in the source
[5] = ref Rong R, Clin Endocrinol, 2006
[6] = COS-7 cell line, ref Hughes DA, Hum Genet, 2009
[7] = COS-7 cell line, ref Brumm H, Obesity, 2012
[8] = ref Wang ZQ, Biochim Biophys Acta, 2011
[9] = COS-7 cell line, ref Hinney A, J Clin Endocrinol Metab, 2006
[10] = ref Fan ZC, J Cell Mol Med, 2009
[11] = ref Srinivasan S, J Clin Invest, 2004
[12] = ref Xiang Z, Biochemistry, 2010
[13] = ref Lubrano-Berthelier C, J Clin Endocrinol Metab, 2006
[14] = ref Xiang Z, Biochemistry, 2006
[15] = MC4R D126Y, ref Wang ZQ, Biochim Biophys Acta, 2011
[16] = MC4R D146N, ref Wang ZQ, Biochim Biophys Acta, 2011
[17] = MC4R F201L, ref Wang ZQ, Biochim Biophys Acta, 2011
[18] = MC4R G231V, ref Wang ZQ, Biochim Biophys Acta, 2011
[19] = MC4R I170del, ref Wang ZQ, Biochim Biophys Acta, 2011
[20] = MC4R I186V, ref Wang ZQ, Biochim Biophys Acta, 2011
[21] = MC4R I195S, ref Wang ZQ, Biochim Biophys Acta, 2011
[22] = MC4R P260Q, ref Wang ZQ, Biochim Biophys Acta, 2011
[23] = MC4R Q307X, ref Wang ZQ, Biochim Biophys Acta, 2011
[24] = MC4R T248A, ref Huang H, J Mol Endocrinol, 2012

For C40R, the Basal activity ([1]; COS-7 cell line, ref Tarnow P, J Biol Chem, 2003) is given as 112 % of WT, the Basal activity [1, 5] is given as 157 % of WT and the Cell surface expression [2, 5] is given as 100 % of WT.

For C40Y, the Basal activity [1, 6] is listed as 108 % of WT and the Cell surface expression [2, 6] is listed as 49 % of WT.

For D37G, the Basal activity ([1]; ref Hughes DA, Hum Genet, 2009) is listed as 83 % of WT and the Cell surface expression ([2]; ref Hughes DA, Hum Genet, 2009) is listed as 100 % of WT.

For “E61X (MVNSTHRGMHTSLHLWNRSSYRLHSNASESLGKGYSDGGCYEQLFVSPEVFVTLGVISLL; nonsense E61X; UniProt P32245 1-60, looked up, fragment)”, the Cell surface expression [2, 7] is listed as 5 % of WT.

In the case of G32E, the Basal activity ([1]; limited data, ref Ahituv N, Am J Hum Genet, 2007) is listed as 70 % of WT.

In the case of G34A, the Cell surface expression ([2]; ref Moore BS, PLoS One, 2014) is given as 85 % of WT.

For MT-II, the “cAMP Emax - Ligand no.2 (% of WT)” value ([3]; MC4R A219V, ligand no.2 MT-II, ref Larsen LH, J Clin Endocrinol Metab, 2005) is listed as 34.0 % of WT and the “cAMP Emax - Ligand no.2” value ([3]; MC4R S36Y, ref Larsen LH, J Clin Endocrinol Metab, 2005) is listed as 86.0 % of WT.

In the case of Q307X, the Basal activity [1, 8] is given as 20 % of WT, the Cell surface expression [2, 7] is given as 40 % of WT and the Cell surface expression ([2]; ref Santoro N, BMC Med Genet, 2009) is given as 31 % of WT. For the same substance, the Cell surface expression [2, 8] was 20 % of WT.

For R7C, the Basal activity [1, 9] is given as 133 % of WT, the Basal activity [1, 10] is given as 100 % of WT and the Cell surface expression [2, 9] is given as 100 % of WT. For the same substance, the Cell surface expression [2, 10] was 45 % of WT.

In the case of R7H, the Cell surface expression [2, 11] is given as 80 % of WT and the Cell surface expression [2, 12] is given as 100 % of WT.

For R18C, the Basal activity [1, 13] is given as 36 % of WT, the Cell surface expression [2, 13] is given as 115 % of WT and the Cell surface expression [2, 11] is given as 95 % of WT. The Cell surface expression [2, 14] was 45 % of WT.

In the case of R18H, the Basal activity [1, 13] is listed as 46 % of WT, the Cell surface expression [2, 13] is listed as 150 % of WT and the Cell surface expression [2, 11] is listed as 95 % of WT. For the same substance, the Cell surface expression [2, 12] was 85 % of WT.

In the case of R18L, the Cell surface expression [2, 11] is listed as 95 % of WT and the Cell surface expression [2, 12] is listed as 95 % of WT.

For S30F, the Basal activity ([1]; COS-7 cell line, ref Hinney A, J Clin Endocrinol Metab, 2003) is listed as 140 % of WT and the Cell surface expression ([2]; S30F variant alone, ref Lubrano-Berthelier C, Hum Mol Genet, 2003) is listed as 120 % of WT.

For S30F/G252S, the Cell surface expression ([2]; both variants on the same allele, ref Lubrano-Berthelier C, Hum Mol Genet, 2003) is listed as 60 % of WT and the Cell surface expression ([2]; both variants on the same allele, ref Nijenhuis WA, J Biol Chem, 2003) is listed as 69 % of WT.

In the case of S36T, the Basal activity [1, 6] is listed as 83 % of WT and the Cell surface expression [2, 6] is listed as 107 % of WT.

For S36Y, the Cell surface expression [2, 12] is given as 90 % of WT.

For “W16X (MVNSTHRGMHTSLHL; nonsense W16X; UniProt P32245 1-15, looked up, fragment)”, the Cell surface expression [2, 7] is given as 5 % of WT and the Cell surface expression ([2]; HEK293 cell line, ref Bolze F, Pharmacogenomics J, 2013) is given as 0 % of WT.

In the case of Y35C, the Basal activity [1, 5] is listed as 172 % of WT and the Cell surface expression [2, 5] is listed as 100 % of WT.

In the case of “Y35X (MVNSTHRGMHTSLHLWNRSSYRLHSNASESLGKG; nonsense Y35X; UniProt P32245 1-34, looked up, fragment)”, the Cell surface expression [2, 7] is listed as 0 % of WT and the Cell surface expression [2, 14] is listed as 5 % of WT.

In the case of Y287X, the Cell surface expression [2, 14] is listed as 30 % of WT and the Cell surface expression ([2]; ref Yeo GS, Hum Mol Genet, 2003) is listed as 0 % of WT.

In the case of β-MSH, the “Binding Bmax - Ligand no.2 (% of WT)” value [4, 15] is listed as 0.0 % of WT, the “Binding Bmax - Ligand no.2 (% of WT)” value [4, 16] is listed as 23.9 % of WT and the “Binding Bmax - Ligand no.2 (% of WT)” value [4, 17] is listed as 116.0 % of WT. The “Binding Bmax (% of WT)” value ([4]; MC4R F280L, ref Wang ZQ, Biochim Biophys Acta, 2011) was 57.4 % of WT, the “Binding Bmax - Ligand no.2 (% of WT)” value [4, 18] was 123.2 % of WT and the “Binding Bmax (% of WT)” value ([4]; MC4R H76R, ref Wang ZQ, Biochim Biophys Acta, 2011) was 81.7 % of WT. The “Binding Bmax (% of WT)” value ([4]; MC4R I69R, ref Wang ZQ, Biochim Biophys Acta, 2011) was 0.0 % of WT, the “Binding Bmax - Ligand no.2” value [4, 19] was 0.0 % of WT and the “Binding Bmax - Ligand no.2 (% of WT)” value [4, 20] was 150.5 % of WT. For the same substance, the “Binding Bmax - Ligand no.2 (% of WT)” value [4, 21] was 71.2 % of WT, the “Binding Bmax (% of WT)” value ([4]; MC4R I289L, ref Wang ZQ, Biochim Biophys Acta, 2011) was 127.4 % of WT and the “Binding Bmax (% of WT)” value ([4]; MC4R M79I, ref Wang ZQ, Biochim Biophys Acta, 2011) was 98.2 % of WT. The “Binding Bmax - Ligand no.2 (% of WT)” value [4, 22] was 0.0 % of WT, the “Binding Bmax - Ligand no.2” value [4, 23] was 0.0 % of WT and the “Binding Bmax (% of WT)” value ([4]; MC4R R305S, ref Wang ZQ, Biochim Biophys Acta, 2011) was 128.1 % of WT. The “Binding Bmax (% of WT)” value ([4]; MC4R S94N, ref Wang ZQ, Biochim Biophys Acta, 2011) was 41.0 % of WT, the “Binding Bmax - Ligand no.2 (% of WT)” value [4, 24] was 125.0 % of WT and the “Binding Bmax (% of WT)” value ([4]; MC4R Y332C, ref Wang ZQ, Biochim Biophys Acta, 2011) was 129.6 % of WT. The “Binding Bmax (% of WT)” value ([4]; MC4R Y332H, ref Wang ZQ, Biochim Biophys Acta, 2011) was 150.0 % of WT, the “cAMP Emax - Ligand no.2” value ([3]; MC4R C40Y, COS-7 cell line, ref Hughes DA, Hum Genet, 2009) was 98.0 % of WT and the “cAMP Emax - Ligand no.2 (% of WT)” value ([3]; MC4R C271R, COS-7 cell line, ref Tarnow P, J Biol Chem, 2003) was 22.5 % of WT. The “cAMP Emax - Ligand no.2” value ([3]; MC4R D37G, ref Hughes DA, Hum Genet, 2009) was 75.0 % of WT, the “cAMP Emax - Ligand no.2 (% of WT)” value [3, 15] was 0.0 % of WT and the “cAMP Emax - Ligand no.2 (% of WT)” value [3, 16] was 96.1 % of WT. For the same substance, the “cAMP Emax - Ligand no.2 (% of WT)” value [3, 17] was 100.0 % of WT, the “cAMP Emax - Ligand no.2 (% of WT)” value ([3]; MC4R F202L, COS-7 cell line, ref Hughes DA, Hum Genet, 2009) was 79.0 % of WT and the “cAMP Emax - Ligand no.2” value ([3]; MC4R F280AfsX12, ref Xiang Z, Biochemistry, 2006) was 0.0 % of WT. For the same substance, the “cAMP Emax - Ligand no.2 (% of WT)” value ([3]; MC4R G181D, ref Xiang Z, Biochemistry, 2010) was 0.0 % of WT, the “cAMP Emax - Ligand no.2 (% of WT)” value [3, 18] was 104.9 % of WT and the “cAMP Emax - Ligand no.2 (% of WT)” value ([3]; MC4R H158R, COS-7 cell line, ref Hinney A, J Clin Endocrinol Metab, 2006) was 122.0 % of WT. The “cAMP Emax - Ligand no.2 (% of WT)” value ([3]; MC4R I125K, ref Xiang Z, Biochemistry, 2006) was 0.0 % of WT, the “cAMP Emax - Ligand no.2 (% of WT)” value ([3]; MC4R I170V, COS-7 cell line, ref Hughes DA, Hum Genet, 2009) was 97.0 % of WT and the “cAMP Emax - Ligand no.2” value [3, 19] was 0.0 % of WT. The “cAMP Emax - Ligand no.2 (% of WT)” value [3, 20] was 65.8 % of WT, the “cAMP Emax - Ligand no.2 (% of WT)” value [3, 21] was 94.1 % of WT and the “cAMP Emax - Ligand no.2” value ([3]; MC4R I251WfsX34, ref Xiang Z, Biochemistry, 2010) was 0.0 % of WT. For the same substance, the “cAMP Emax - Ligand no.2” value ([3]; MC4R L211MfsX6, ref Xiang Z, Biochemistry, 2006) was 0.0 % of WT, the “cAMP Emax - Ligand no.2 (% of WT)” value ([3]; MC4R M200V, COS-7 cell line, ref Hinney A, J Clin Endocrinol Metab, 2006) was 91.0 % of WT and the “cAMP Emax - Ligand no.2 (% of WT)” value [3, 22] was 20.0 % of WT. The “cAMP Emax - Ligand no.2 (% of WT)” value ([3]; MC4R Q156R, COS-7 cell line, ref Hinney A, J Clin Endocrinol Metab, 2006) was 92.0 % of WT, the “cAMP Emax - Ligand no.2” value ([3]; MC4R Q307X, ref Santoro N, BMC Med Genet, 2009) was 0.0 % of WT and the “cAMP Emax - Ligand no.2” value [3, 23] was 0.0 % of WT. For the same substance, the “cAMP Emax - Ligand no.2” value ([3]; MC4R R7C, COS-7 cell line, ref Hinney A, J Clin Endocrinol Metab, 2006) was 83.0 % of WT, the “cAMP Emax - Ligand no.2 (% of WT)” value ([3]; MC4R R236H, COS-7 cell line, ref Hinney A, J Clin Endocrinol Metab, 2006) was 96.0 % of WT and the “cAMP Emax - Ligand no.2” value ([3]; MC4R S36T, COS-7 cell line, ref Hughes DA, Hum Genet, 2009) was 82.0 % of WT. The “cAMP Emax - Ligand no.2 (% of WT)” value ([3]; MC4R S136F, COS-7 cell line, ref Tarnow P, Obes Facts, 2008) was 23.0 % of WT, the “cAMP Emax - Ligand no.2 (% of WT)” value ([3]; MC4R S191T, COS-7 cell line, ref Hughes DA, Hum Genet, 2009) was 97.0 % of WT and the “cAMP Emax - Ligand no.2 (% of WT)” value ([3]; MC4R T162R, COS-7 cell line, ref Ochoa MC, Clin Endocrinol, 2007) was 80.0 % of WT. The “cAMP Emax - Ligand no.2 (% of WT)” value [3, 24] was 79.5 % of WT, the “cAMP Emax - Ligand no.2 (% of WT)” value ([3]; MC4R V166I, COS-7 cell line, ref Hinney A, J Clin Endocrinol Metab, 2006) was 105.0 % of WT and the “cAMP Emax - Ligand no.2 (% of WT)” value ([3]; MC4R V166I, COS-7 cell line, ref Hughes DA, Hum Genet, 2009) was 105.0 % of WT. For the same substance, the “cAMP Emax - Ligand no.2 (% of WT)” value ([3]; MC4R W174C, ref Xiang Z, Biochemistry, 2010) was 0.0 % of WT and the “cAMP Emax - Ligand no.2” value ([3]; MC4R Y35X, ref Xiang Z, Biochemistry, 2006) was 0.0 % of WT.
